From patent publication US20250002918A1, “COMPOSITIONS AND METHODS FOR TREATMENT OF MIC60 DEPLETED CANCERS AND METASTASIS” (The Wistar Institute of Anatomy and Biology, priority 2021, published 2025)

Assays:
[1] = tested on: PC3 cells transduced with pLKO or shMic60; test: Tumor cell proliferation; type: cell-based; details: for suppression of proliferation, Mic60-depleted vs control transfectants: PC3 cells
[2] = tested on: PC3 cells stably transduced with pLKO or Mic60-directed shRNA (shMic60); test: Small-molecule drug screening, cell viability (CellTiterGlo); details: drug screen, 72-h incubation, based on IC50 values (FIG. 4A, 4B)
Method: (§1) FIG. 4A-FIG. 4I show therapeutic vulnerability of GCN2/Akt signaling exposed by Mic60 depletion. (FIG. 4A and FIG. 4B) PC3 cells transduced with pLKO or shMic60 were analyzed in a high-throughput drug screening (FIG. 4A), and candidate compounds with differential tumor cell killing in shCtrl- or shMic60-transduced cultures (FIG. 4B) were analyzed based on IC50 values (nM). (FIG. 4C) PC3 cells transfected with siMic60 were analyzed for differential ISR gene expression by RNA-Seq. A representative experiment is shown. (FIG. 4D) PC3 cells transfected with siCtrl or siMic60 were analyzed by Western blotting. p, phosphorylated. (FIG. 4E) PC3 cells as in FIG. 4A and FIG. 4B were transfected with ATF4-mScarlet nuclear reporter gene and analyzed by flow cytometry in two independent experiments (Exp). The percentage of cells in gated regions is indicated. (FIG. 4F) Kaplan-Meier survival curves for differential expression of DDIT3 or ATF4 in Mic60-low GBM or pan-kidney cancer cohort comprising kidney chromophobe, kidney renal clear cell carcinoma, and kidney renal papillary cell carcinoma (KIPAN) in the Human Protein Atlas database. The number of patients per each condition and P values are indicated. (FIG. 4G) PC3 cells as in FIG. 4A and FIG. 4B were incubated with vehicle (Veh) or GCN2-IN-1 small-molecule inhibitor to GCN2 and analyzed for Annexin V/PI staining by multiparametric flow cytometry. The percentage of cells in each quadrant is indicated in a representative experiment (n=2). (FIG. 4H) PC3 cells were transfected with siCtrl or GCN2-directed siRNA (siGCN2) and analyzed by Western blotting. (FIG. 4I) PC3 cells were transfected with siCtrl or GCN2-directed siRNA (siGCN2) and analyzed for cell death by Trypan blue exclusion and light microscopy after 72 h. Mean±SD.
Cell viability screening against the MedChem Express anti-cancer library (1,820 compounds) was performed using CellTiterGlo (Promega). PC3 cells stably transduced with pLKO or Mic60-directed shRNA (shMic60) were maintained in complete media, trypsinized, and plated (500 cells/well) in 40 μL of complete medium the day before the experiment in white, clear-bottom 384-well plates. A total of 50 nL of test compound was added to each well using the Janus MDT Nanohead (Perkin-Elmer). Each compound was screened at a final concentration of 10, 1, 0.1, and 0.01 μM. After a 72-h incubation at 37° C. in the presence of 5% CO2, 20 μL of the CellTiterGlo reagent was added to each well. After 15 min, luminescence was measured using the Envision Multimode plate reader (PerkinElmer). The raw data were normalized to % inhibition, where 0% is the relative light units (RLU) in the presence of dimethylsulfoxide, and 100% is the RLU in the presence of 1 μM bortezomib. Estimated half maximal inhibitory concentration (IC50) values for each compound were determined using nonlinear regression fits on the data to a one-site binding model in XlFit (ID Business Solutions Ltd. [IDBS]). Because only 4 data points were used in this calculation, the top and bottom of the curve was fixed to 100% and 0%, respectively, with a constant slope value of 1.

[3] = tested on: Mic60-silenced tumor cells; test: Focal adhesion (FA) dynamics after Mic60 silencing; type: cell-based
LN229 cells = test: Single-cell motility by time-lapse videomicroscopy; type: cell-based; details: Mic60-silenced LN229 cells vs control transfectants
Method: (§2) Cells ([…]) were seeded in 4-well Ph+ Chambers (Ibidi) in complete growth medium and allowed to attach for 16 h at 37° C. Time-lapse videomicroscopy was performed over 10 h, with a time-lapse interval of 10 min. Stacks were imported into Image J Fiji software for analysis, and at least 10 to 20 cells per condition were tracked using the Manual Tracking plugin for Image J Fiji. Tracking data were exported into the Chemotaxis and Migration Tool v. 2.0 (Ibidi) for graphing and calculation of the mean and SD of speed and accumulated distance of movement. For directional cell migration, wounds were made in monolayers of PC3 cells using a 10-μL pipette tip. Cell debris were washed off, and cultures were maintained in complete growth medium containing 10% fetal bovine serum at 37° C. and 5% CO2. Time-lapse imaging of migrating cells was performed using a TE300 inverted microscope (Nikon) equipped with an incubator set at 37° C., 5% CO2, and 95% relative humidity. Each image was acquired using a 10× objective of the same fields at each 10-min interval for a total of 24 h.

PC3 cells = test: Single-cell motility by time-lapse videomicroscopy; type: cell-based; details: Mic60-silenced PC3 cells vs control transfectants
Method: as §2

[4] = tested on: PC3 cells transduced with pLKO or shMic60; test: Annexin V/PI staining by multiparametric flow cytometry; type: cell-based; details: preferentially in Mic60-silenced PC3 cells compared to control cultures (FIG. 4G)
Method: as §1, with “(FIG. 4F) Kaplan-Meier survival curves for differential expression of DDIT3 or ATF4 in Mic60-low GBM or pan-kidney cancer cohort comprising kidney chromophobe, kidney renal clear cell carcinoma, and kidney renal papillary cell carcinoma (KIPAN) in the Human Protein Atlas database. The number of patients per each condition and P values are indicated.” left out, “The percentage of cells in each quadrant is indicated in a representative experiment (n=2).” left out, “Mean±SD.” left out

[5] = tested on: PC3 cells transduced with pLKO or shMic60; test: Caspase-dependent cell death; type: cell-based
Mic60-silenced cells = test: Tumor cell invasion (Matrigel); type: cell-based; details: Mic60-silenced cells reconstituted with the scavenger
Method: FIG. 3A-FIG. 3G show Mic60 regulation of tumor cell motility and metastasis. (FIG. 3A) PC3 cells transduced with pLKO or shMic60 were analyzed for circularity (Top; 1=perfect sphere) and surface area (Bottom). Each symbol corresponds to an individual determination. Min to max values are indicated (pLKO, n=36; shMic60, n=39). *** P<0.0001 to 0.0009. (FIG. 3B) PC3 cells as in FIG. 3A were analyzed by Western blotting. (FIG. 3C) PC3 cells transduced with pLKO or shMic60 were analyzed for single-cell motility in 2D contour plots by time-lapse video microscopy. Each tracing corresponds to the movements of an individual cell (pLKO, n=90; shMic60, n=94). The average speed of cell movements (velocity [Vel], μm/min) and distance traveled (Dis; μm) are indicated. Mean±SD (n=3). P<0.0001. […] (FIG. 3D) PC3 cells as in FIG. 3A or WT or Mic60 KO PC3 cells were analyzed for invasion across Matrigel-coated inserts and quantified. […] (FIG. 3F) PC3 cells as in FIG. 3A were injected into the spleen of NSG mice, and liver samples harvested after 11 d were stained with hematoxylin/eosin, and the number (FIG. 3F, Top) and surface area (FIG. 3F, Bottom) of metastatic foci were quantified by morphometry. […] (FIG. 3G) Matched patient samples of LUAD representative of normal parenchyma (N), primary tumor (P), or metastasis (M) were analyzed for differential Mic60 expression by RT-PCR. […]

O=c1[nH]c2ccccc2n1C1CCN(Cc2ccc(-c3nc4cc5[nH]cnc5cc4nc3-c3ccccc3)cc2)CC1 [Akt inhibitor VIII]
suppression of proliferation, Mic60-depleted vs control transfectants [1]: suppressed proliferation selectively of Mic60-depleted PC3 cells
differential tumor cell killing, Mic60-silenced vs control cultures [2]: killed Mic60-silenced PC3 cells more efficiently than control cultures

CN(c1ncccc1CNc1nc(Nc2ccc3c(c2)CC(=O)N3)ncc1C(F)(F)F)S(C)(=O)=O [FAKi]
FA dynamics [3]: normalized FA dynamics
single-cell motility (LN229 cells): restored the single-cell motility of PC3 or LN229 cells to levels of control transfectants
single-cell motility (PC3 cells): restored the single-cell motility of PC3 or LN229 cells to levels of control transfectants

c1nn(C2CCOCC2)cc1Nc1ncc2nnn(-c3ccc4cn[nH]c4c3)c2n1 [GCN2-IN-1]
proliferation (cell number) with GCN2 inhibitor ([1]; pLKO control PC3 cells): 3.3×10^5±0.62×10^5 cells
proliferation (cell number) with GCN2 inhibitor ([1]; shMic60 PC3 cells, P=0.009 vs pLKO): 1.95×10^5±0.4×10^5 cells
Annexin V-associated apoptosis [4]: activated Annexin V-associated apoptosis
caspase-dependent cell death ([5]; pLKO control PC3 cells): 8.4±6.3%
caspase-dependent cell death ([5]; shMic60 PC3 cells, P=0.04 vs pLKO): 23.1±5.6%
differential tumor cell killing, Mic60-silenced vs control cultures [2]: killed Mic60-silenced PC3 cells more efficiently than control cultures

NC1(c2ccc(-c3nc4ccn5c(=O)[nH]nc5c4cc3-c3ccccc3)cc2)CCC1 [MK2206]
suppression of proliferation, Mic60-depleted vs control transfectants [1]: suppressed proliferation selectively of Mic60-depleted PC3 cells

CC1(C)CC(NC(=O)C[P+](c2ccccc2)(c2ccccc2)c2ccccc2)CC(C)(C)N1[O] [MitoTempo]
tumor cell invasion (Mic60-silenced cells): normalized tumor cell invasion to control levels

C/C(=N\NC(=S)N1CCC1)c1ccccn1 [NSC319726]
differential tumor cell killing, Mic60-silenced vs control cultures [2]: preferential killing against Mic60-low PC3 cells

CS(=O)(=O)N1CCC(NC(=O)c2[nH]ncc2NC(=O)c2c(Cl)cccc2Cl)CC1 [NVP-LCQ195]
differential tumor cell killing, Mic60-silenced vs control cultures [2]: preferential killing against Mic60-low PC3 cells

CC1(C)CCC(c2ccc(Cl)cc2)=C(CN2CCN(c3ccc(C(=O)NS(=O)(=O)c4ccc(N[C@H](CCN5CCOCC5)CSc5ccccc5)c(S(=O)(=O)C(F)(F)F)c4)cc3)CC2)C1 [Navitoclax]
differential tumor cell killing, Mic60-silenced vs control cultures [2]: preferential killing against Mic60-low PC3 cells

C/C(=N\NC(=O)c1cccc(S(=O)(=O)N2CCOCC2)c1)c1cc(Cl)ccc1O [SP2509]
differential tumor cell killing, Mic60-silenced vs control cultures [2]: preferential killing against Mic60-low PC3 cells

COc1cc2c(cc1OC)CN(CCc1ccc(NC(=O)c3cc(OC)c(OC)cc3NC(=O)c3cnc4ccccc4c3)cc1)CC2 [Tariquidar]
differential tumor cell killing, Mic60-silenced vs control cultures [2]: preferential killing against Mic60-low PC3 cells

COc1cc(/C=C/C(=O)CC(=O)/C=C/c2ccc(O)c(OC)c2)ccc1O [curcumin]
differential tumor cell killing, Mic60-silenced vs control cultures [2]: preferential killing against Mic60-low PC3 cells

COc1cc([C@@H]2c3cc4c(cc3[C@H](O)[C@H]3COC(=O)[C@H]23)OCO4)cc(OC)c1OC [podophyllotoxin]
differential tumor cell killing, Mic60-silenced vs control cultures [2]: preferential killing against Mic60-low PC3 cells
